The values below come from patent publication US8791077B2, “Method for treating hyperuricemia employing an SGLT2 inhibitor and composition containing same” (AstraZeneca AB, priority 2008, dated 2014).

The subject of assay [1] is Healthy Normal Volunteers. Briefly: Urinary glucose excretion over 24 hr in healthy normal volunteers after single doses of SGLT2 inhibitors. The class given is in vivo, human. Particulars: healthy subjects; 5, 20, 50 or 100 mg; compared to GSK 869,682; FIG. 1.
Another assay relates to patients with diabetes. The following applies: 5, 25, or 100 mg, FIG. 2.
For the next assay, the system named is diabetic patients. Kind of assay: 12-week treatment of diabetic patients: urine glucose, HbA1C, urine volume, serum uric acid. Particulars: for Uric Acid (change in serum uric acid), mean ± standard deviation: 12 week treatment. The class given is in vivo, human.
Another assay relates to type 2 diabetic patients. An excerpt: C-aryl glucoside SGLT2 inhibitors are known to reduce blood glucose levels in diabetic patients, see U.S. Pat. No. 6,774,112, which is incorporated herein by reference in its entirety, but not known to increase urine volume. […] Metformin reduces plasma glucose concentration by non-renal mechanisms and is not known to induce glucosuria. […] On day 1 and day 14, the patients were examined for the levels of glucosuria and changes in urine volumes. […] Patients' serum uric acid levels were not measured in this experiment.

In another assay the test system is SGLT2 relative to SGLT-1. The following applies: ratio of EC50 in SGLT1 and SGLT2 assay.

Text for SGLT2 relative to SGLT-1: Selectivity for SGLT2 of a given inhibitor can be determined by comparing the EC50 values measured in the SGLT1 and SGLT2 assay. […] The hSGLT1 and hSGLT2 sequences were cloned into pIRESneo vector (Clontech, Mountain View, Calif.) for mammalian expression and were stably transfected into Chinese hamster ovary (CHO) cells. SGLT-expressing clones were selected based on resistance to G418 antibiotic (GENETICIN®, Invitrogen, Carlsbad, Calif.) and activity in the ^14C-α-methyl-D-glucopyranoside (^14C-AMG) uptake assay.
Cells expressing hSGLT1 or hSGLT2 were maintained using standard cell culture techniques. […] Sodium-dependent ^14C-AMG uptake was calculated by subtracting the counts per minute (CPM) observed under sodium-free uptake conditions from the counts observed under sodium-containing conditions. Inhibitors were assayed at various concentrations in triplicate in the presence of sodium, and the percent inhibition was calculated by comparing CPM in inhibitor-containing wells with CPM in wells containing only DMSO vehicle. Phlorizin, a known SGLT inhibitor, was evaluated in parallel in every assay. […]
Text for patients with diabetes: The levels of urine glucose of all subjects are shown in the plot and the mean urine glucose is in the darker lines.

On to `CCOc1ccc(Cc2cc([C@@H]3O[C@H](CO)[C@@H](O)[C@H](O)[C@H]3O)ccc2Cl)cc1` [dapagliflozin PGS, dapagliflozin (S)-propylene glycol solvate], for which the “Glucosuric effect (glucose excretion/day within 24 hours), loss of calories in urine” value in assay [1] was “significant loss of calories in the urine”. Moreover, the “Urine glucose excretion compared to placebo” value in the assay on patients with diabetes is “higher levels of urine glucose excretion”. The “Uric Acid (change in serum uric acid), mean ± standard deviation” value with diabetic patients (2.5 mg) was -1.03 ± 0.81 mg/dL; in the assay on diabetic patients (5 mg) it was -1.12 ± 0.84 mg/dL; in the assay with diabetic patients (10 mg) it was -0.98 ± 0.66 mg/dL; in the assay on diabetic patients (20 mg) it was -1.13 ± 0.78 mg/dL; in the assay on diabetic patients (50 mg), -1.14 ± 1.15 mg/dL. The OGT result in the assay on diabetic patients (diabetic patients, 2.5-50 mg, after 12 weeks of treatment) is “improved OGT”. Also, in the assay on diabetic patients (diabetic patients, all doses, after 12 weeks treatment), the “Average of decrease in serum uric acid levels” value is listed as “approximately 1 g/dL”. For the same compound, the “Fasting serum glucose (FSG) levels” value with type 2 diabetic patients (two-week period) is given as “Dose-dependent reduction”. Besides, the “Postprandial glucose levels in oral glucose tolerance tests (OGTT)” value in the assay with type 2 diabetic patients (two-week period) is “reduced postprandial glucose levels”. For the same compound, the Urine volumes entry in the assay on type 2 diabetic patients (two-week period) is given as “no increase in urine volumes was apparent”. For the same compound, the “Urinary glucose levels within a 24-hour time period” value with type 2 diabetic patients (vs placebo, FIG. 3) is “increased”.

As to `CCOc1ccc(Cc2cc([C@@H]3O[C@H](CO)[C@@H](O)[C@H](O)[C@H]3O)ccc2Cl)cc1` [dapagliflozin], the “Selectivity for SGLT2 relative to SGLT-1” value in the assay on SGLT2 relative to SGLT-1 is on record as “High selectivity for SGLT2”.

On to `CN(C)C(=N)N=C(N)N` [metformin, reference compound], for which, in the assay with diabetic patients (metformin group), the “Uric Acid (change in serum uric acid), mean ± standard deviation” value is 0.18 ± 0.53 mg/dL. For the same compound, the “Reduced HbA1C levels” value in the assay on diabetic patients (diabetic patients, 1500 mg metformin) is given as 0.73%.
